From US10702527B2, “Combination therapy of transcription inhibitors and kinase inhibitors” (Dana-Farber Cancer Institute, Inc., priority 2015, dated 2020)
“Also recorded” adds a separate entry of the source.

How the values were obtained:
[1] = test system: RT112 bladder carcinoma cells (FGFR3-dependent); assay: Colony formation assay in RT112 cells; format: cell-based, human; details: for colony formation: crystal violet staining, relative to control
Description: Media (and drug) were replaced weekly.

[2] = test system: gene expression in RT112 cells; assay: RNA-Seq gene expression in RT112 cells; format: cell-based, human; details: for gene expression (transcriptional programs) by RNAseq: BGJ398 1 μM, THZ1 100 nM, one or seven days
Method: (§4) RNA was isolated from untreated RT112 cells and RT112 cells treated with 1 μM BGJ398, 100 nM THZ1, or combination treatment with THZ1 plus BGJ398, and similarly, untreated PC9 cells and PC9 cells treated with 1 μM erlotinib, 100 nM THZ1, or THZ1 plus erlotinib. Both cell lines were harvested at two time-points: following one day or seven days of treatment. Cell number was determined and total RNA was isolated using the RNeasy micro kit (Qiagen). Ambion® ERCC RNA Spike-In Mix (Life technology) was added to total RNA. cDNA libraries were prepared using the NEBNext® Ultra™ RNA Library Prep Kit for Illumina (New England Biolabs) according to the manufacturer's instructions. Library integrity was assessed on an Agilent 2100 Bioanalyzer (Agilent). Sequencing was performed on the Hiseq 2000 platform (Illumina) to a minimum depth of 30 million reads per sample.
(§5) QC-passed reads were aligned to the human reference genome (hg19) using PRADA.^46 Transcript per million (TPM) values were determined using RSEM.^47 TPM values were normalized with the voom transformation.^48 Expression changes for each gene in treated cells compared to untreated controls was determined using the limma package^49 as log 2-transformed fold change and a multiple-testing adjusted p-value. Heatmap visualization was performed using R. Log 2-transformed fold changes were not scaled and were colored on a blue-red scale.
(§6) Differentially expressed genes (defined as log 2-fold change value greater than 1.5 or less than −1.5, and p-value less than 0.01) were input into Ingenuity Pathway Analysis (www.ingenuity.com), to identify a) enriched pathways, 2) upstream regulators, andd 3) downstream effectors. […] We considered an activation z-score of greater than [2] to be activated, and less than [−2] to be inhibited. Gene ontology term (GO-term) enrichment analysis was performed using the Database for Annotation, Visualization and Integrated Discovery (DAVID) v6.7 (david.abcc.ncifcrf.gov/).

[3] = test system: H3K27Ac enhancer signal in RT112 cells; assay: H3K27Ac ChIP-Seq in RT112 cells; format: cell-based, human; details: seven days of treatment, vs DMSO
Method: RT112 and PC9 cells treated for seven days with vehicle, 1 μM BGJ398 and erlotinib (respectively), 100 nM THZ1, or BGJ398/erlotinib in combination with THZ1. H3K27Ac ChIP-Seq was performed using Abcam antibody (cat # AB4729, lot # GR183922-1) as previously described,^8 with minor modifications (cells were crosslinked for 20 min, Dynal magnetic beads (Sigma) were bound with 10 μg of the indicated antibody).
Illumina sequencing libraries were generated and data was processed as described elsewhere.^50 In brief, libraries were generated for ChIP samples following the Illumina TruSeq™ DNA Sample Preparation v2 kit protocol with minor changes. All ChIP-Seq data sets were aligned using bowtie 1.0.1 to build […] of the human genome with -p 4—best -k 2 -m 2—sam -1 40. Wiggle files for gene tracks were created using Macs 1.4.2 with options -w -S -space=50 to count reads in 50 bp bins.
Regions enriched in H3K27Ac were identified using SICER^51 with corresponding input DNA control, and parameters -t 1 (max 1 read per position), -w 200 (window size 200), -i 150 (fragment size), -g 200 (gap size 200; 1 window), -t 0.74 (interrogable genome fraction), -e 200 (e-value), -p 1e-9 (significance p value cutoff). […]
Density of H3K27Ac ChIP-Seq signal (FIG. 51F) was calculated using bamToGFF (github.com/BradnerLab/pipeline). […]

[4] = test system: RT112 cells; assay: Resistance emergence in RT112 cells under BGJ398 treatment (FIG. 1); format: cell-based, human
Description: One mechanism of resistance may be through the upregulation of NRG1 due to signaling via ERBB2/ERBB3 and is rapid (a matter of days) and reversible (Wang et al., Oncogene, 2015, 34(17):2167-77). The resistance may also be associated with EMT.

[5] = test system: PC9 cells (EGFR-dependent NSCLC); assay: Colony formation assay in PC9 cells; format: cell-based; details: 4 weeks, compared to THZ1 (FIG. 55B)
[6] = test system: HER-2 dependent models; details: cited from earlier work
[7] = test system: signaling pathways in PC9 cells; assay: Western blot / immunoblot of signaling pathways in PC9 cells; format: cell-based; details: 24 hours, erlotinib 1 μM, THZ1 100 nM; for FGFR activation / p-STAT3 (STAT3 phosphorylation/activation): alone or combined
Method: (§1) Cells were lysed in RIPA buffer (Roche) containing protease inhibitors (Roche) and Phosphatase Inhibitor Cocktails I and II (CalBioChem). Protein concentrations were determined using a Bradford assay (Bio-Rad). Proteins were separated by SDS gel electrophoresis using NuPAGE 4-12% Bis-Tris gels (Life Technologies) in MOPS buffer. Resolved protein was transferred to nitrocellulose membranes, blocked in 10% milk and probed with primary antibodies recognizing EGFR (2232S), p-EGFR (2234S), FGFR3 (4574S), p-FGFR (3471S), HER2/ERBB2 (2165), p-ERBB2 (2243S), STAT1 (9172), p-STAT1 (9167), STAT3 (4904S), p-STAT3 (9145S), AKT (9272S), p-AKT (4060P), ERK (4695S), p-ERK (4370S), FRA1 (5281S), CDK12 (11973) (all from Cell Signaling Technology), CDK7 (sc-723, Santa Cruz), actin (A5441, Sigma-Aldrich) and vinculin (V9131, Sigma-Aldrich) in 5% milk or 3% bovine serum albumin as recommended by the manufacturer. After incubation with the appropriate secondary antibody (Pierce anti-mouse IgG/IgM (31444, Thermo Scientific) and anti-rabbit IgG (31460, Thermo Scientific)), blots were imaged on film.
(§2) Western blots were used to characterize the signaling pathways in selected cell lines. The assays were performed at 24 hours under the following conditions: untreated, treated with 1 μM erlotinib, treated with 100 nM THZ1, or treated with a combination of erlotinib and THZ1, in PC9 and RT112 cells. These doses were also used in the colony formation assays and the RNAseq and ChIPseq experiments. […] However, it could be blocking the activation of downstream STAT3 targets. […] FGFR is known to be a bypass mechanism in PC9, but this was not seen with THZ1 treatment or with the combination treatment. […] This is unexpected, given that THZ1 should block CDK7-mediated RNAPII phosphorylation. This may be due to the dose or the time point assayed.

[8] = test system: signaling pathways in RT112 cells; assay: Western blot / immunoblot of signaling pathways in RT112 cells; format: cell-based, human; details: 24 hours
Method: as §1
as §2, with “The assays were performed at 24 hours under the following conditions: untreated, treated with 1 μM erlotinib, treated with 100 nM THZ1, or treated with a combination of erlotinib and THZ1, in PC9 and RT112 cells.” left out

[9] = test system: signaling pathways in A549 cells; assay: Western blot / immunoblot of signaling pathways in A549 cells; format: cell-based; details: 24 hours
Method: as §1
(§3) These two lines were both shown in Sharma et al. (Cell, 2010, 141(1):69-80) to employ the STAT3 feedback loop. p-ERK was decreased in the combination treatment arm. […] Therefore, there are some generalizable findings across the four lines.

[10] = test system: signaling pathways in H23 cells; assay: Western blot / immunoblot of signaling pathways in H23 cells; format: cell-based; details: 24 hours
Method: as §1, §3

[11] = test system: IL-6; assay: IL-6 in PC9 cell culture supernatants (Luminex cytokine assay, ELISA); format: cell-based; details: PC9 cells; erlotinib 1 μM, THZ1 100 nM; 24 and 72 hours
Method: A Luminex Multiplex Custom Cytokine assay was used to assay cytokines in RT112 and PC9 cell culture supernatants treated with vehicle, 1 μM BGJ398 or erlotinib respectively, 100 nM THZ1, or THZ1 in combination with BGJ398 or erlotinib, at 24 and 72 hours. Cytokines assayed for were: CCL2/MCP-1, CCL5/RANTES, CXLC5, IL-1 alpha and beta, IL-2, IL-4, IL-5, IL-6, IL-8, IL-10, IL-17a, GM-CSF, TNF-alpha, VEGF, INF-gamma. IL-6 was also assayed in cell culture supernatants using the Quantikine IL-6 ELISA kit (D6050, R&D Systems) as per the manufacturer's protocol.

[12] = test system: gene expression in PC9 cells; assay: RNA-Seq gene expression in PC9 cells; details: for gene expression (transcriptional programs) by RNAseq: erlotinib 1 μM, THZ1 100 nM, one or seven days
Method: as §4, §5, §6

[13] = test system: A549 cells (KRAS-mutant NSCLC); details: 4 weeks, crystal violet staining
Method: 100,000 cells were seeded in 6-well plates, allowed to adhere overnight, and then incubated with media containing vehicle or drug as indicated for 4 weeks. Media (and drug) were replaced weekly. At 4 weeks plates were, fixed with 1% paraformaldehyde, and then stained with 0.1% crystal violet as previously described (medicine.yale.edu/lab/kim/resources/protocols/cell/crystal- violet_stain.aspx) to assess colony formation. Results were quantified using an ImageJ Colony Area PlugIn.^44

[14] = test system: PC9 cells; assay: Apoptosis/cell death analysis (Annexin V/PI flow cytometry) in PC9 cells; format: cell-based; details: 48 hours; erlotinib 1 μM; compared to PC9 cells with control RNA guide
Method: 100,000 cells were seeded in 6-well plates, allowed to adhere overnight, and then incubated with media containing vehicle or drug as indicated for 24 or 48 hours. Cell death was quantified using the Alexa Fluor 488 Annexin V/Dead Cell Apoptosis kit for flow cytometry (Invitrogen), according to the manufacturer's protocol. All conditions were assayed in triplicate. Data were acquired using a BD LSRFortessa X-20 (BD Biosciences), and analyzed in FlowJo.

[15] = test system: H3K27Ac enhancer signal in PC9 cells; assay: H3K27Ac ChIP-Seq in PC9 cells; format: cell-based, human; details: seven days of treatment, vs DMSO
Method: All ChIP-Seq data sets were aligned using bowtie 1.0.1 to build NCBI36/hg19 of the human genome with -p 4—best -k 2 -m 2—sam -1 40. Wiggle files for gene tracks were created using Macs 1.4.2 with options -w -S -space=50 to count reads in 50 bp bins.
Density of H3K27Ac ChIP-Seq signal (FIG. 51F) was calculated using bamToGFF (github.com/BradnerLab/pipeline). Islands of H3K27Ac identified in RT112 BGJ398-treated cells or PC9 erlotinib-treated cells were treated as one bin (-m 1), reads were extended to be 200 bp (default) and the reads-per-million (-r) normalized density (-d) of reads was calculated therein.

[16] = log2-normalized FPKM, two-tailed t-test

**Q.** For `CCN1CCN(c2ccc(Nc3cc(N(C)C(=O)Nc4c(Cl)c(OC)cc(OC)c4Cl)ncn3)cc2)CC1` [BGJ398], which colony formation ([1]; 4 weeks) is on record?
**A.** comparable to control

**Q.** And the “gene expression (transcriptional programs) by RNAseq” value [2]?
**A.** transcriptionally distinct from the parental population; also recorded: up-regulated the expression of genes involved in pro-survival programs

**Q.** What about the “gene expression of the top 200 up-regulated genes with BGJ398 treatment” value [2, 16] of the same molecule?
**A.** significant increase in gene expression

**Q.** And the “H3K27Ac ChIP-Seq signal at enhancers” value [3]?
**A.** significant increase in H3K27Ac signal

**Q.** And the resistance emergence [4]?
**A.** led to resistance emergence

**Q.** Which results are given for `Cc1sc2c(c1C)C(c1ccc(Cl)cc1)=N[C@@H](CC(=O)OC(C)(C)C)c1nnc(C)n1-2` [JQ1]?
**A.** enhancement of sensitivity to BGJ398 (colony formation) ([1]; 4 weeks, compared to THZ1 (FIG. 55D)): did enhance sensitivity to BGJ398 in RT112, although less so than THZ1; colony formation, transcription inhibitor alone or in combination with BGJ398 ([1]; one week, 24-well plate (FIG. 35)): modest results, even in combination; enhancement of sensitivity to erlotinib (colony formation) [5]: did not enhance sensitivity to erlotinib; sensitivity to lapatinib [6]: enhance sensitivity to lapatinib

**Q.** Which results are given for `CN(C)C/C=C/C(=O)Nc1ccc(C(=O)Nc2cccc(Nc3ncc(Cl)c(-c4c[nH]c5ccccc45)n3)c2)cc1` [THZ1]?
**A.** colony formation ([1]; 4 weeks): comparable to control; FRA1 protein levels [7]: nor did it restore FRA1 levels; RNAPII phosphorylation [7]: increase in RNAPII phosphorylation; STAT1 phosphorylation [7]: blocked STAT1 phosphorylation; FGFR activation [7]: not seen; also recorded: blocked; p-STAT3 (STAT3 phosphorylation/activation) [7]: does not inhibit the feedback activation of STAT3; also recorded: not blocking the activation of p-STAT3; also recorded: did not affect the phosphorylation status of STAT3; ERBB2 activation [8]: blocked ERBB2 activation; RNAPII phosphorylation [8]: increase in RNAPII phosphorylation; FRA1 protein levels ([8]; BGJ398 1 μM, THZ1 100 nM): nor did it restore FRA1 levels; STAT1 phosphorylation ([8]; BGJ398 1 μM, THZ1 100 nM): blocked STAT1 phosphorylation; p-STAT3 (STAT3 phosphorylation/activation) ([8]; BGJ398 1 μM, THZ1 100 nM, alone or combined): does not inhibit the feedback activation of STAT3; also recorded: did not affect the phosphorylation status of STAT3; also recorded: not blocking the activation of p-STAT3; RNAPII phosphorylation [9]: again increased; RNAPII phosphorylation [10]: again increased; IL-6 levels in cell culture supernatants [11]: suppressed the increase in IL-6 levels; gene expression (transcriptional programs) by RNAseq [2]: attenuation of these programs; gene expression (transcriptional programs) by RNAseq [12]: attenuation of these programs

**Q.** With `C[C@@H](Oc1cc(-c2cnn(C3CCNCC3)c2)cnc1N)c1c(Cl)ccc(F)c1Cl` [crizotinib] as the molecule, how does the colony formation [13] read?
**A.** ineffective

**Q.** With `C#Cc1cccc(Nc2ncnc3cc(OCCOC)c(OCCOC)cc23)c1` [erlotinib] as the molecule, how does the “sensitivity to erlotinib (cell death) of CDK7 and CDK12-deficient PC9 cells” value [14] read?
**A.** enhanced sensitivity to erlotinib

**Q.** And the FGFR activation [7]?
**A.** is activated; also recorded: activation of FGFR was also observed

**Q.** What about the “p-STAT3 (STAT3 phosphorylation/activation)” value [7] of the same molecule?
**A.** increases

**Q.** What about the “IL-6 levels in cell culture supernatants” value [11] of the same molecule?
**A.** significantly increased

**Q.** What about the “H3K27Ac ChIP-Seq signal at enhancers” value [15] of the same molecule?
**A.** significant increase in H3K27Ac signal

**Q.** What about the “gene expression (transcriptional programs) by RNAseq” value [12] of the same molecule?
**A.** transcriptionally distinct form the parental population; also recorded: up-regulated the expression of genes involved in pro-survival programs

**Q.** And the “gene expression of the top 200 up-regulated genes with erlotinib treatment” value [12, 16]?
**A.** significant increase in gene expression
